Measured values as given in patent US10925283B2, “Microbiocidal phenylamidine derivatives” (SYNGENTA PARTICIPATIONS AG, priority 2016, dated 2021).

Legend:
Assay type in all cases: in vivo
[1] = test system: Blumeria graminis f. sp. tritici (Erysiphe graminis f. sp. tritici); assay: Blumeria graminis f. sp. tritici / wheat / leaf disc preventative (powdery mildew on wheat); settings: foliar, wheat leaf segments cv. Kanzler, inoculated 1 day after application, assessed 6-8 days after application, read-out: control of Blumeria graminis f. sp. tritici (percent disease control compared to untreated)
In short: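 Wheat cv. Kanzler leaf segments on agar were sprayed with formulated compound in water, then inoculated with powdery mildew 1 day after application. Incubation was at 20° C, 60% rh, 24 h dark then 12 h light/12 h dark. Percent disease control versus untreated was scored 6-8 days after application.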

Phakopsora pachyrhizi = Phakopsora pachyrhizi / soybean / preventative (soybean rust); settings: foliar, soybean leaf disks, inoculated one day after application, assessed 12-14 days after application, read-out: control of Phakopsora pachyrhizi (percent disease control compared to untreated)
Procedure: Phakopsora pachyrhizi/Soybean/Preventative (Soybean Rust) Soybean leaf disks are placed on water agar in multiwell plates (24-well format) and sprayed with the formulated test compound diluted in water. One day after application leaf discs are inoculated by spraying a spore suspension on the lower leaf surface. After an incubation period in a climate cabinet of 24-36 hours in darkness at 20° C. and 75% rh leaf disc are kept at 20° C. with 12 h light/day and 75% rh. The activity of a compound is assessed as percent disease control compared to untreated when an appropriate level of disease damage appears in untreated check leaf disks (12-14 days after application).

[2] = test system: Puccinia recondita f. sp. tritici; assay: Puccinia recondita f. sp. tritici / wheat / leaf disc curative (brown rust); settings: foliar, wheat leaf segments cv. Kanzler, compound applied 1 day after inoculation, assessed 6-8 days after application, read-out: control of Puccinia recondita f. sp. tritici (percent disease control compared to untreated)
In short: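 Curative test: leaf segments of wheat cv. Kanzler on agar were inoculated with spores and held dark at 19 °C, 75% rh; formulated compound in water was applied 1 day after inoculation. Segments were then kept at 19 °C, 75% rh under 12 h light/12 h dark, and percent disease control versus untreated was scored 6-8 days after application.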

[3] = test system: Puccinia recondita f. sp. tritici; assay: Puccinia recondita f. sp. tritici / wheat / leaf disc preventative (brown rust); settings: foliar, wheat leaf segments cv. Kanzler, inoculated 1 day after application, assessed 7-9 days after application, read-out: control of Puccinia recondita f. sp. tritici (percent disease control compared to untreated)
In short: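 Leaf segments of wheat cv. Kanzler on agar were sprayed with diluted formulated compound and inoculated with spores 1 day later. Kept at 19° C, 75% rh, 12 h light/12 h dark. Percent disease control versus untreated assessed 7-9 days after application.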

Measured: pest or weed control at 200 ppm

CCN(C)/C=N/c1cc(OC)c(C(O)(COC(C)c2ccccc2)C(F)(F)F)cc1C (stereo not drawn) [E.028, N-ethyl-N′-[5-methoxy-2-methyl-4-[2,2,2-trifluoro-1-hydroxy-1-(1-phenylethoxymethyl)ethyl]phenyl]-N-methyl-formamidine]
≥ 80%: all assays above

CCN(C)/C=N/c1cc(OC)c(C(O)(CON=C(C)C)C(F)(F)F)cc1C (stereo not drawn) [E.036, N-ethyl-N′-[5-methoxy-2-methyl-4-[2,2,2-trifluoro-1-hydroxy-1-[(isopropylideneamino)oxymethyl]ethyl]phenyl]-N-methyl-formamidine]
≥ 80%: all assays above

CCN(C)/C=N/c1cc(OC)c(C(O)(CON=C2CCCCC2)C(F)(F)F)cc1C (stereo not drawn) [E.037, N′-[4-[1-[(cyclohexylideneamino)oxymethyl]-2,2,2-trifluoro-1-hydroxy-ethyl]-5-methoxy-2-methyl-phenyl]-N-ethyl-N-methyl-formamidine]
≥ 80%: all assays above

CCN(C)/C=N/c1cc(OC)c(C(O)(COC2CCCCC2)C(F)(F)F)cc1C (stereo not drawn) [E.039, N′-[4-[1-(cyclohexoxymethyl)-2,2,2-trifluoro-1-hydroxy-ethyl]-5-methoxy-2-methyl-phenyl]-N-ethyl-N-methyl-formamidine]
≥ 80%: all assays above

CC#CCOCC(O)(c1cc(C)c(/N=C/N(C)CC)cc1OC)C(F)(F)F (stereo not drawn) [E.040, N′-[4-[1-(but-2-ynoxymethyl)-2,2,2-trifluoro-1-hydroxy-ethyl]-5-methoxy-2-methyl-phenyl]-N-ethyl-N-methyl-formamidine]
≥ 80%: all assays above

C#CCOCC(O)(c1cc(C)c(/N=C/N(C)CC)cc1OC)C(F)(F)F (stereo not drawn) [E.041, N-ethyl-N′-[5-methoxy-2-methyl-4-[2,2,2-trifluoro-1-hydroxy-1-(prop-2-ynoxymethyl)ethyl]phenyl]-N-methyl-formamidine]
≥ 80%: all assays above

CCN(C)/C=N/c1cc(OC)c(C(O)(COC2CCC(C)CC2)C(F)(F)F)cc1C (stereo not drawn) [E.042, N-ethyl-N′-[5-methoxy-2-methyl-4-[2,2,2-trifluoro-1-hydroxy-1-[(4-methylcyclohexoxy)methyl]ethyl]phenyl]-N-methyl-formamidine]
≥ 80%: all assays above

CCN(C)/C=N/c1cc(OC)c(C(O)(COCC(C)C)C(F)(F)F)cc1C (stereo not drawn) [E.046, N-ethyl-N′-[5-methoxy-2-methyl-4-[2,2,2-trifluoro-1-hydroxy-1-(isobutoxymethyl)ethyl]phenyl]-N-methyl-formamidine]
≥ 80%: all assays above

CCN(C)/C=N/c1cc(OC)c(C(O)(COc2ccccc2)C(F)(F)F)cc1C (stereo not drawn) [E.047, N-ethyl-N′-[5-methoxy-2-methyl-4-[2,2,2-trifluoro-1-hydroxy-1-(phenoxymethyl)ethyl]phenyl]-N-methyl-formamidine]
≥ 80%: all assays above

CC#CCOCCC(O)(c1cc(C)c(/N=C/N(C)CC)cc1OC)C(F)(F)F (stereo not drawn) [E.049, N′-[4-[3-but-2-ynoxy-1-hydroxy-1-(trifluoromethyl)propyl]-5-methoxy-2-methyl-phenyl]-N-ethyl-N-methyl-formamidine]
≥ 80%: all assays above

C#CCOCCC(O)(c1cc(C)c(/N=C/N(C)CC)cc1OC)C(F)(F)F (stereo not drawn) [E.050, N-ethyl-N′-[4-[1-hydroxy-3-prop-2-ynoxy-1-(trifluoromethyl)propyl]-5-methoxy-2-methyl-phenyl]-N-methyl-formamidine]
≥ 80%: all assays above

CCN(C)/C=N/c1cc(OC)c(C(O)(CCOCc2ccccc2)C(F)(F)F)cc1C (stereo not drawn) [E.051, N′-[4-[3-benzyloxy-1-hydroxy-1-(trifluoromethyl)propyl]-5-methoxy-2-methyl-phenyl]-N-ethyl-N-methyl-formamidine]
≥ 80%: all assays above

CCCOCCC(O)(c1cc(C)c(/N=C/N(C)CC)cc1OC)C(F)(F)F (stereo not drawn) [E.052, N-ethyl-N′-[4-[1-hydroxy-3-propoxy-1-(trifluoromethyl)propyl]-5-methoxy-2-methyl-phenyl]-N-methyl-formamidine]
≥ 80%: all assays above

CCN(C)/C=N/c1cc(OC)c(C(O)(CCOc2ccc(F)cc2)C(F)(F)F)cc1C (stereo not drawn) [E.053, N-ethyl-N′-[4-[3-(4-fluorophenoxy)-1-hydroxy-1-(trifluoromethyl)propyl]-5-methoxy-2-methyl-phenyl]-N-methyl-formamidine]
≥ 80%: all assays above

CCN(C)/C=N/c1cc(OC)c(C(O)(CCOc2ccccc2)C(F)(F)F)cc1C (stereo not drawn) [E.054, N-ethyl-N′-[4-[1-hydroxy-3-phenoxy-1-(trifluoromethyl)propyl]-5-methoxy-2-methyl-phenyl]-N-methyl-formamidine]
≥ 80%: all assays above

CCN(C)/C=N/c1cc(OC)c(C(O)(C2CCOCC2)C(F)(F)F)cc1C (stereo not drawn) [E.055, N-ethyl-N′-[5-methoxy-2-methyl-4-(2,2,2-trifluoro-1-hydroxy-1-tetrahydropyran-4-yl-ethyl)phenyl]-N-methyl-formamidine]
≥ 80%: all assays above

CCO/N=C/CC(O)(c1cc(C)c(/N=C/N(C)CC)cc1OC)C(F)(F)F (stereo not drawn) [E.056, N′-[4-[(3E)-3-ethoxyimino-1-hydroxy-1-(trifluoromethyl)propyl]-5-methoxy-2-methyl-phenyl]-N-ethyl-N-methyl-formamidine]
≥ 80%: all assays above

CCO/N=C(\C)CC(O)(c1cc(C)c(/N=C/N(C)CC)cc1OC)C(F)(F)F (stereo not drawn) [E.057, N′-[4-[(3E)-3-ethoxyimino-1-hydroxy-1-(trifluoromethyl)butyl]-5-methoxy-2-methyl-phenyl]-N-ethyl-N-methyl-formamidine]
≥ 80%: all assays above
